Measured values as given in patent US11389424B2, “Methods and compositions for treating chemotherapy-induced diarrhea” (NAPO PHARMACEUTICALS, INC., priority 2017, dated 2022).
Where two headings read alike, the source gives them in different places.

Key:
[1] = test system: recurrent, cutaneous mast cell tumors; conditions: cited from earlier work
[2] = 9-month toxicity study (WIL-288022), oral (capsule) administration of enteric-coated crofelemer tablets; design: species or system beagle dogs; conditions: dog, in vivo
Method: The dose for this study was based on data obtained from a pilot study that assessed the clinical effectiveness of crofelemer (SP-303) in alleviating clinical signs associated with secretory diarrhea in dogs (CANA-001) and the wide margin of safety established in 30-day (WIL-288006) and 9-month (WIL-288022) toxicity studies. Chronic safety of crofelemer in dogs was studied in a 9-month study during which tablets were administered in capsules once daily, 7 days per week, for 273 or 274 days to three groups of beagle dogs. Dosage levels were 50, 175 and 600 mg/kg/day, plus a concurrent control group. Based on the results of this study, the no-observed-adverse-effect level (NOAEL) for oral (capsule) administration of enteric-coated crofelemer tablets to dogs for 273 or 274 consecutive days was 50 mg/kg/day. […] Thus, the no effect level is estimated to be between 50 and 175 mg/kg/day.

Compound | objective response (primary effectiveness endpoint) ([1]; end of the six-week masked phase, vs placebo 8%, p<0.001) [%] | all grade diarrhea ([1]; masked phase) [%] | grade 3-4 diarrhea ([1]; masked phase) [%] | any grade diarrhea ([1]; masked plus open label phases) [%] | grade 3-4 diarrhea ([1]; masked plus open label phases) [%] | primary adverse effect at the higher dosages [2]
Cc1[nH]c(/C=C2\C(=O)Nc3ccc(F)cc32)c(C)c1C(=O)NCCN1CCCC1.O=P(O)(O)O [toceranib phosphate, Toceranib phosphate] | 37 | 46 | 7 | 59 | 8 | 
Crofelemer |  |  |  |  |  | gastrointestinal irritation
